Data taken from patent publication US20260240809A1 (EDMOND PHARMA SRL, priority 2022, published 2026).
Values after ≈ are worked out from the molar mass of the structure shown. Like-named read-outs stand apart in the source and are kept apart here. Blank lines part the entries; values can stand above or below the compound they belong to.

What was measured:
[1] = biological target: T1, TrkA receptor (Homo sapiens, UniProt P04629); experiment: Phospho-TrkA (Tyr674/675) ELISA: activation of TrkA receptor by NGF in SH-SY5Y cells; assay type: cell-based; conditions: for effect on basal activity in absence of NGF: FIG. 4
T1 construct: host or cells: SH-SY5Y human neuroblastoma cells
T1 sequence (P04629 33-796): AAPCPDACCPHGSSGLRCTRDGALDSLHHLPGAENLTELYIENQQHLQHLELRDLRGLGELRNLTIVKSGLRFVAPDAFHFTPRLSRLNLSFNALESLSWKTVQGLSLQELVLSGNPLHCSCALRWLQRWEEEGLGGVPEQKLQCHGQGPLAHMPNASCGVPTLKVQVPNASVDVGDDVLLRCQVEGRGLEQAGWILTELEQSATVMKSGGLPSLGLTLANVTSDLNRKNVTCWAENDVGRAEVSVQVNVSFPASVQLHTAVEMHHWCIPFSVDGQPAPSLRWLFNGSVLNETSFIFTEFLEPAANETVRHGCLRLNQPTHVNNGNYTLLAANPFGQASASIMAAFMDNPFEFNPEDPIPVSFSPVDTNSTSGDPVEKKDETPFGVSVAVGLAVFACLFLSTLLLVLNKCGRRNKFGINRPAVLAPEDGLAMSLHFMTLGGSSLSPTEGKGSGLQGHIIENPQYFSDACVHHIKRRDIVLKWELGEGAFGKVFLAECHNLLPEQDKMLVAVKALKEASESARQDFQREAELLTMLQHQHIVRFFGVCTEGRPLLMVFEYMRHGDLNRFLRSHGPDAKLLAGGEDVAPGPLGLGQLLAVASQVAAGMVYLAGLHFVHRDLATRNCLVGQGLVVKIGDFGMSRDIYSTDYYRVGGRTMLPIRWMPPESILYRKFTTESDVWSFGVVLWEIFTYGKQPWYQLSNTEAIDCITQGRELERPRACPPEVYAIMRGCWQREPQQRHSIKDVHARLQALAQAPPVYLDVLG
Protocol: The experiment is based on a commercially available ELISA assay evaluating the amount of phosphorylated TrkA (Pandre M K. et al., 2018) and used as indicated in the producer's protocol. The cell culture conditions were described in Marchesi N. et al., 2020.
All the experiments were performed under a laminar flow hood.
The phospho-TrkA (Tyr674/675) protein levels in SH-SY5Y cells were estimated with a specific ELISA kit (Cell Signaling, #7212C.), according to the manufacturer's instructions.
PathScan® Phospho-TrkA (Tyr674/675) Sandwich ELISA Kit is a solid phase sandwich enzyme-linked immunosorbent assay that detects […] levels of Phospho-TrkA (Tyr674/675) protein. A TrkA Mouse mAb #4614 has been coated onto the microwells. After incubation with cell lysates, both phospho- and nonphospho-TrkA proteins are captured by the coated antibody. Following extensive washing to remove any unbound antibody/reagent, Phospho-TrkA (Tyr674/675) Antibody #4610 is added to detect phospho-TrkA protein. Anti-rabbit IgG, HRP-linked Antibody #7074 is then used to recognize the bound detection antibody. HRP substrate, TMB (3,3′,5,5′-tetramethylbenzidine), is added to develop color. The magnitude of optical density is proportional to the quantity of Phospho-TrkA (Tyr674/675) protein.
The color development was stopped and the intensity of the color measured at 450 nm using a Synergy HT microplate reader (BioTek Instruments). The antibodies used in the kit were custom formulations specific for the kit.

[2] = tested on: SH-SY5Y cells; assay type: cell-based; conditions: human
Protocol: Accordingly, two time points were explored: short (90 min) and long (24 hrs). In general, longer times of exposure may sometime influence the chosen response to the test conditions/substances; it is therefore important in the starting exploratory protocols to explore an adequate time interval.
The cellular toxicity was evaluated by measuring the mitochondrial activity through the MTT assay (Marchesi N. et al., 2020).
Mitochondrial enzymatic activity was estimated by MTT [3-(4,5-dimethylthiazol-2-yl)-2,5-diphenyltetrazolium bromide] assay (Sigma-Aldrich). A cell suspension of 2×10^4 cells/mL SH-SY5Y cell line was seeded into 96-well plates.
Following each treatment of 90 minutes and 24 hours, 50 μL of MTT (concentration equal to 2.5 mg/mL) were added to each well. After incubation at 37° C. for 3 hours, the purple formazan crystals were formed. The formed crystals were solubilized in dimethylsulfoxide (DMSO; Sigma-Aldrich). Specifically, after removing the MTT from the wells, 100 μL of DMSO were added in order to lyse the cellular and mitochondrial membranes, and solubilize the formazan crystals. After 10 minutes, absorbance values were measured at 595 nm using a Synergy HT microplate reader (BioTek Instruments) and the results expressed as % with respect to control. […]

[3] = Solubility of the test substances; assay type: physicochemical
[4] = 1 mM, 24 hrs, FIG. 9, Dunnett's test
[5] = 10 mM, 24 hrs, FIG. 8, Dunnett's test
[6] = 10 mM, 24 hrs, FIG. 9, Dunnett's test
[7] = 24 hrs exposure, no NGF, FIG. 8
[8] = SH-SY5Y, read-out: inhibition of TrkA activation by NGF, 10 mM, 24 hrs exposure, FIG. 8
[9] = 10 mM, 90 min, FIG. 4, Tukey's test
[10] = SH-SY5Y, read-out: inhibition of NGF (reduction of the response to NGF)
[11] = SH-SY5Y, read-out: inhibition of TrkA activation by NGF

Statistically significant (NGF vs. substance + NGF) ([1]; 1 nM, 24 hrs, FIG. 9, Dunnett's test): No
Statistically significant (NGF vs. substance + NGF) ([1]; 100 nM, 24 hrs, FIG. 9, Dunnett's test): Yes
effect on TrkA activation by NGF ([1]; 100 nM, 24 hrs, no change up to 10 mM, FIG. 9): already maximal
Statistically significant (NGF vs. substance + NGF) ([1]; 1 uM, 24 hrs, FIG. 9, Dunnett's test): Yes
Statistically significant (NGF vs. substance + NGF) ([1]; 0.01 mM, 24 hrs, FIG. 9, Dunnett's test): Yes
Statistically significant (NGF vs. substance + NGF) ([1]; 0.05 mM, 24 hrs, FIG. 9, Dunnett's test): Yes
Statistically significant (NGF vs. substance + NGF) ([1]; 0.1 mM, 24 hrs, FIG. 9, Dunnett's test): Yes
Statistically significant (NGF vs. substance + NGF) [1, 4]: No
Statistically significant (NGF vs. substance + NGF) ([1]; 5 mM, 24 hrs, FIG. 9, Dunnett's test): Yes
Statistically significant (NGF vs. substance + NGF) [1, 5]: Yes
Statistically significant (NGF vs. substance + NGF) [1, 6]: Yes
IC50 ([1]; 24 hrs exposure, FIG. 9): 0.001 to 0.1 µM
effect on the basal activity [1, 7]: no effect
inhibition at 10000 µM [1, 8]: 41%
SMILES: O=C(O)CSCC(=O)N[C@H]1CCSC1=O [Erdo S]

decrease of mitochondrial activity ([2]; 24 h, 10 mM): 17.5%
Statistically significant (NGF vs. substance + NGF) [1, 9]: Yes
Statistically significant (NGF vs. substance + NGF) ([1]; 20 mM, 90 min, FIG. 3, Tukey's test): Yes
Statistically significant (NGF vs. substance + NGF) ([1]; 20 mM, 90 min, FIG. 4, Tukey's test): Yes
Statistically significant (NGF vs. substance + NGF) ([1]; 40 mM, 90 min, FIG. 3, Tukey's test): Yes
effect on basal pTrkA levels (substance alone) ([1]; 20 and 40 mM, 90 min, no NGF, FIG. 3): did not alter
effect on basal activity in absence of NGF ([1]; 90 min, no NGF): do not modify
inhibition at 10000 µM [1, 10]: 23%
inhibition at 20000 µM [1, 10]: 24.5%
inhibition at 20000 µM [1, 11]: 34%
inhibition at 40000 µM [1, 11]: 52%
solubility ([3]; water): 164 mg/mL (≈ 613 mM)
SMILES: O=C(O)CSCC(=O)NC(CCS)C(=O)O (stereo not shown) [Met-1]

decrease in mitochondrial activity ([2]; 90 min, 20 mM): 16.3%
Statistically significant (NGF vs. substance + NGF) ([1]; 0.1 mM, 24 h, FIG. 7, Tukey's test): No
inhibitory action on TrkA activation by NGF ([1]; 0.1 mM, 24 hrs exposure, FIG. 7): ineffective
Statistically significant (NGF vs. substance + NGF) ([1]; 0.5 mM, 24 h, FIG. 7, Tukey's test): Yes
inhibition of TrkA activation by NGF at plateau ([1]; 1 mM and higher (up to 10 mM), 24 hrs exposure, FIG. 7): around 40%
Statistically significant (NGF vs. substance + NGF) ([1]; 1 mM, 24 h, FIG. 7, Tukey's test): Yes
inhibitory action on TrkA activation by NGF ([1]; 1.0 mM, 24 hrs exposure, FIG. 7): significant inhibitory action
Statistically significant (NGF vs. substance + NGF) [1, 4]: No
Statistically significant (NGF vs. substance + NGF) ([1]; 5 mM, 24 h, FIG. 7, Tukey's test): Yes
Statistically significant (NGF vs. substance + NGF) ([1]; 10 mM, 90', FIG. 6, Tukey's test): Yes
Statistically significant (NGF vs. substance + NGF) [1, 9]: No
Statistically significant (NGF vs. substance + NGF) ([1]; 10 mM, 24 h, FIG. 6, Tukey's test): Yes
Statistically significant (NGF vs. substance + NGF) ([1]; 10 mM, 24 h, FIG. 7, Tukey's test): Yes
Statistically significant (NGF vs. substance + NGF) [1, 5]: Yes
Statistically significant (NGF vs. substance + NGF) [1, 6]: Yes
effect on basal activity in absence of NGF ([1]; 90 min, no NGF): do not modify
IC50 ([1]; 24 hrs exposure, FIG. 9): 500 to 1000 µM
inhibition at 10000 µM ([1]; SH-SY5Y, 10 mM, 24 hours exposure, FIG. 6, read-out: inhibition of TrkA phosphorylation): 42.2%
inhibition at 10000 µM ([1]; SH-SY5Y, read-out: inhibition of NGF (reduction of the response to NGF), 10 mM, 90 min pre-exposure, NGF 100 ng/ml, FIG. 4): 8.2%
inhibition at 10000 µM ([1]; SH-SY5Y, read-out: inhibition of TrkA activation by NGF, 10 mM, 90 min exposure, FIG. 6): 13.9%
inhibition at 10000 µM [1, 8]: 36%
solubility at 20 min ([3]; 37 °C, aqueous buffer, MEM, warming 20 minutes at 37°): 11 mg/mL (≈ 44.1 mM)
SMILES: O=C(O)CSCC(=O)NC1CCSC1=O (racemic) [erdosteine, (2-[N-3-(2-oxotetrahydrothienyl)]acetamido)-thioglycolic acid, reference compound]
inhibitory action on TrkA activation by NGF ([1]; 0.5 mM, 24 hrs exposure, FIG. 7): a trend which is appreciable but not strongly statistically significant

SMILES: O=C(O)CSCC(=O)N[C@@H]1CCSC1=O [Erdo R]
inhibition of TrkA activation by NGF ([1]; 10 mM, 24 hrs exposure, FIG. 8): 30%
Statistically significant (NGF vs. substance + NGF) [1, 5]: Yes
effect on the basal activity [1, 7]: no effect
